What is called melting point is the temperature, or range, at which the solid turns liquid.

We go through 91 compounds from a melting point compilation (Tetko et al.; mined from patent text by program, amines drawn as free bases though some values may be those of a salt).

Where only a bound is given, the exact number is not on record here.

`CC(C)(C)C(=O)OCc1nc(-c2ccc3c(c2)Nc2ccccc2S3)cs1` returned a melting point of 120 to 122 °C.

On to `CCn1ccnc1CNC(=O)c1[nH]c2ccc(Cl)cc2c1S(=O)(=O)c1ccccc1`, for which the melting point was 204 to 206 °C.

In the case of `COC(=O)c1cccc(-c2cc(CCN3CCCC3=O)c3cc(OC)ccc3c2)c1`, the melting point lay in the range of 110 to 112 °C.

Turning to `CS(=O)(=O)Nc1ccc([N+](=O)[O-])nc1`, the melting point lay in the range of 187 to 189 °C.

`C#Cc1ccc(Nc2c(C(=O)c3nccs3)ccc(F)c2F)c(F)c1`: the melting point was found to be 161 °C.

`Cn1c(CNC(=O)c2cc3ccccc3[nH]2)c(-c2ccccc2)c2cc(Cl)ccc2c1=O` yielded a melting point greater than 305 °C.

The compound `CCOC(=O)c1cccc(-c2ccc(C#N)cc2)c1` returned a melting point of 91.5 to 92 °C.

`COCc1ncccc1CN(CCn1cc(C)c2occc2c1=O)Cc1ccc2c(c1)NC(=O)C(C)(C)C(=O)N2CC(C)C` registered a melting point of 207 to 210 °C.

`COc1ccc(-c2cnc3ccc(-c4nnc(SCc5cccc(C#N)c5)o4)cn23)cc1`: the melting point was 143 to 144 °C.

In turn, `CCOc1nn(-c2ccc(C(F)(F)F)cn2)cc1CCCOc1ccccc1CCC(=O)O` yielded a melting point of 93 to 94 °C.

In the case of `CC(C)N(C(=O)COc1nnc(C(F)F)s1)c1cccc(Cl)c1`, the melting point came to 98 °C.

For the compound `CC(=O)Nc1cccc(NC(=O)NC2N=C(c3ccccc3F)c3ccccc3N(CC(=O)N3CC4CCC(CC4)C3)C2=O)c1` (racemic), the melting point lay within 207 to 215 °C.

For the compound `CC(C)n1nc(-c2c(OC3CCC3)nc(N)nc2-c2ccccc2)ccc1=O`, the melting point was in the range of 161 to 162 °C.

On to `CC(C)(C)OC(=O)NCCNC(=O)c1cccc(Br)n1`, for which the melting point was in the range of 108 to 109 °C.

As to `COC(=O)C(Oc1cc(OCc2ccccc2)ccc1C#N)c1ccccc1C` (racemic), the melting point fell in the range of 134 to 136 °C.

Compound `O=C(Cl)c1cc2ccccc2oc1=O` returned a melting point of 138 to 141 °C.

Consider `CCc1nn(CC(N)=O)c(CC)c1Oc1cc(Cl)cc(Cl)c1`, for which the melting point fell in the range of 164 to 166 °C.

For `CN(C)c1ncnc2c(NC3OC(CO)C(O)C3O)ncnc12` (stereo unspecified), the melting point turned out to be 231 °C.

As to `Cc1c(OCc2ccccc2)ccc2c(=O)cc(N3CCN(c4ccccn4)CC3)oc12`, the melting point is 148 to 149 °C.

The compound `CC1CC(O)=NN1c1ccc(Cl)c(Cl)c1` (stereo unspecified) displayed a melting point of 208 to 211 °C.

Compound `CCON(Cc1ccc(F)cc1)C(=O)C1=C(O)C(=O)N(C)C1` returned a melting point of 113 to 114 °C.

The compound `CN(C)C=CC(=O)c1ccc(C(F)(F)F)cc1[N+](=O)[O-]` gave a melting point of 101 °C.

In turn, `CC1(C)CCC(C)(C)c2cc(-c3cc(-c4ccc(C(=O)O)c(O)c4)ccc3-c3ccccc3)ccc21` had a melting point of 134 to 136 °C.

In turn, `CN(C)C(=O)C(c1ccccc1)(c1ccccc1)C1CCNC1` (stereo unspecified) had a melting point of 159 to 160 °C.

Compound `Cc1nc(Nc2ccc(F)cc2)nc(Br)c1C` showed a melting point of 123 °C.

`CC(=O)Nc1c(C)cc(O)c(C)c1C` came in with a melting point of 189 to 190 °C.

Compound `CCCNCC1CCN(c2nc3c(cc2F)c(=O)c(C(=O)O)cn3C2CC2)C1` (stereo unspecified) displayed a melting point of 230 to 233 °C.

`CCCC[C@H](NC(=O)CC[C@H](C)CNC(=O)COc1ccccc1)C(=O)CS(=O)Cc1ccco1` (stereo partly specified): the melting point was in the range of 96 to 99 °C.

In turn, `CCCCCCCCCCCCCCCCNC(=O)C=CC(=O)O` came in with a melting point of 46 to 49 °C.

As to `CC(C)(C)OC(=O)N1C[C@@H](Br)C[C@@H]1C(=O)OCc1ccccc1`, the melting point lay within 87 to 88 °C.

`Cn1c(NN)nc2ccc(O)cc2c1=O` registered a melting point greater than 300 °C.

Take `O=C(O)Cc1ccc(Oc2ccc(I)cc2)cc1`: the melting point was 148 to 150 °C.

In turn, `CC(C)CCC(=O)Nc1ccc2oc3c(c2c1)CCCC3` came in with a melting point of 146 °C.

Compound `CCOC(=O)c1[nH]c(C)c(C(C)CC)c1C` (stereo unspecified) showed a melting point of 102 to 104 °C.

On to `CCC(C)(CC)NC(=S)Nc1cc(Cl)cc(Cl)c1`, for which the melting point was in the range of 128 to 132 °C.

In turn, `CCCn1c(=O)c2[nH]c(-c3cc(C)n(CC(=O)Nc4ccc(Cl)cc4)n3)nc2n(CCC)c1=O` came in with a melting point of 261 to 265 °C.

Consider `O=[N+]([O-])c1ccc(-c2nc(-c3ccccn3)no2)cc1`, for which the melting point is 211 to 213 °C.

For the compound `COC(=O)CCC/C=C\CN1C(=O)c2ccccc2C1=O`, the melting point lay in the range of 47 to 49 °C.

In turn, `CC(=O)N1CCC(=C2c3ccc(Cl)cc3CCc3cccnc32)CC1` had a melting point of 155 to 157 °C.

The compound `CNC(=O)CC1(C)OCCn2c1c(C)c1ccccc12` (stereo unspecified) yielded a melting point of 131 to 133 °C.

Take `N#CCNC(=O)COc1ccc(Cl)cc1Cl`: the melting point was 107 to 108 °C.

Turning to `NC(=S)NC(=O)c1ccccc1`, the melting point is 170 to 171 °C.

With `CC1CC2C3CCC4=CC(=O)C=CC4(C)C3=CCC2(C)C1C(=O)CN1CCN(c2cc(NC(C)(C)C)nc(NC(C)(C)C)n2)CC1` (stereo unspecified), the melting point fell in the range of 145 to 155 °C.

With `O=c1c2c(cc3n1CCCS3(=O)=O)CCCC2`, the melting point was in the range of 232 to 233 °C.

Consider `CCC[C@H]1CCC[C@H](N2C(=O)c3ccccc3C2=O)C(=O)N1`, for which the melting point lay in the range of 146 to 151 °C.

As to `N#Cc1cccn(-c2ccc(S(=O)(=O)N(CCO)CCO)cc2)c1=O`, the melting point is 226 to 228 °C.

`CCOCc1nc2c(N)nc3cc(-c4ccccc4)ccc3c2n1CC(C)(C)NC(=O)NC1CCCCC1` registered a melting point of 152 to 156 °C.

For `COC(=O)C1=Cc2cc(-c3ccc(OC(F)(F)F)cc3)ccc2S(=O)(=O)CC1`, the melting point is 142 to 143 °C.

Take `CC(C)C(NC=O)C(=O)O` (stereo unspecified): the melting point was in the range of 143 to 145 °C.

Compound `CCN(CC)CCNc1ccc(NCCN(CC)CC)c2c1C(=O)c1c(O)ccc(O)c1C2=O` registered a melting point of 202 to 204 °C.

In turn, `Cc1noc(C)c1-c1cc(OC2SCC(O)C(O)C2O)ccn1` (stereo unspecified) gave a melting point of 143 to 147 °C.

Take `Cc1csc2c1S(=O)(=O)N(C)C(C(=O)Nc1cccccc1=O)=C2O`: the melting point was 229 to 233 °C.

Take `O=c1[nH]c2ncc(-c3ccc4[nH]ccc4c3)nc2n1CC1CCOCC1`: the melting point was 305 to 308 °C.

`CC(C)(C)COc1ccc(N)cc1Br` returned a melting point of 45 °C.

Turning to `Cc1ccc(-c2c(Cl)nc3ncnn3c2NC(C)C)c(F)c1`, the melting point amounted to 121 °C.

`FC(F)(F)c1ccc(-c2ncc(Br)cn2)cc1` came in with a melting point of 167 °C.

On to `CC(C)c1cc(S(N)(=O)=O)c(C(C)C)cc1C(F)(F)F`, for which the melting point lay within 171 to 174 °C.

`COc1cccc2c1CCCC2(O)CN` (stereo unspecified) showed a melting point of 129 to 130 °C.

As to `CC(=O)NCCC1=C(C(C)C)Cc2ccc3nc(C)oc3c21`, the melting point was 135 to 138 °C.

Turning to `COc1cn(-c2ccc(-n3cccn3)cc2F)nc(C(=O)N(C)OC)c1=O`, the melting point fell in the range of 187 to 189 °C.

`Cc1cc(C2=NNC(=O)CC2)c2c(c1)N(C)C(=O)CO2` displayed a melting point of 266 to 270 °C.

As to `COC(=O)c1c(Cl)cc(Cl)c2ccc(Cl)cc12`, the melting point fell in the range of 113 to 115 °C.

Compound `CCOC(=O)/C=C/c1cc(-c2c(CC(=O)Nc3ccc(Cl)cc3C(F)(F)F)c(=O)oc3cc(Cl)c(C)cc23)ccc1F` displayed a melting point of 160 to 162 °C.

For `CCS(=O)(=O)N(C)c1c(Cl)c(Cl)cc2[nH]c(=O)c(=O)[nH]c12`, the melting point was greater than 300 °C.

In turn, `Cc1cc(C)nc(NC(=O)NS(=O)(=O)c2ccccc2C(=O)N(C)C)c1` registered a melting point of 166 to 168 °C.

Consider `CC(=O)COc1ccc(Cl)cc1Cc1ccccc1`, for which the melting point lay within 65 to 66 °C.

Compound `CC(C)(Cl)C(=O)c1ccc(C(=O)c2ccc(C(=O)C(C)(C)Cl)cc2)cc1` displayed a melting point of 82 to 83 °C.

Regarding `CC(=O)c1ccc(CC2SC(=O)NC2=O)cc1` (stereo unspecified), the melting point fell in the range of 171 to 172 °C.

In the case of `CCCc1[nH]c2cc(C(N)=O)ccc2c1C(=O)C=C(C)C`, the melting point is 179 to 181 °C.

For the compound `N#CCCNC(=O)c1n[nH]cc1NC(=O)c1ccccc1`, the melting point lay within 186 to 187 °C.

As to `COC(=O)c1sc2c(c1N)-c1ccccc1CN2c1ccccc1`, the melting point lay within 136 to 142 °C.

Compound `CC(C)CN(C=NS(=O)(=O)c1c(Cl)nc2ccc(Cl)nn12)CC(C)C` came in with a melting point of 151 to 154 °C.

With `NC(=O)CCSC(SCCC(=O)O)c1cccc(SCc2ccc3ccc(Cl)cc3n2)c1` (stereo unspecified), the melting point was in the range of 141 to 142 °C.

With `COC(=O)c1coc2ccc(C)cc12`, the melting point was 40 to 41 °C.

Take `COc1cccc(NC(=O)COC(C)=O)c1C#N`: the melting point fell in the range of 131 to 132 °C.

In turn, `CC(C)OC1CCC(=O)N1` (stereo unspecified) came in with a melting point of 68 to 71 °C.

In turn, `O=c1nc2n(c(=O)n1CCBr)CCCC2` came in with a melting point of 64 to 66 °C.

Take `CCOC(=O)Nc1cn2nc(OCc3cc(OC)ccc3OC)ccc2n1`: the melting point was in the range of 210 to 211 °C.

As to `CCN1C(=O)C(C)(C)C(=O)N(C)c2cc(CN(CCn3cc(C)c4occc4c3=O)Cc3cnc(C)nc3)ccc21`, the melting point is 166 to 167 °C.

For `O=[N+]([O-])c1ccc(Cl)cc1NC1CCCC1`, the melting point stood at 75 °C.

In the case of `CC(=O)Oc1cccc(C(=O)N[C@@H](Cc2ccccc2)[C@H](O)C(=O)O)c1C`, the melting point is 189 to 191 °C.

As for `COC(=O)c1ccc(CSCC(=O)[C@H](Cc2ccccc2)NC(=O)[C@H](CC(C)C)NC(=O)OCc2ccccc2)o1`, the melting point is 85 to 93 °C.

`CNC(=O)c1nc(-c2cccnc2)nc2c1[nH]c(=O)n2-c1ccccc1` came in with a melting point greater than 330 °C.

On to `CCCOc1ccccc1-c1nc2nc(NCC(F)(F)F)ncc2c(=O)[nH]1`, for which the melting point fell in the range of 214 to 216 °C.

For `N=C(N)c1ccnc(-c2ccc(-c3ccc(-c4cc(C(=N)N)ccn4)s3)s2)c1`, the melting point is greater than 300 °C.

For `Cn1nc(C=NO)nc1NCCCOc1cccc(CN2CCCCC2)c1`, the melting point was in the range of 173 to 174 °C.

For `CC(=O)Nc1ccc(/C=C\COCCCCCCNCC(O)c2ccc(O)c(CO)c2)cc1` (stereo unspecified), the melting point lay within 103 to 108 °C.

Regarding `CC(C)=Nn1c(S)nnc1-n1cccn1`, the melting point lay within 132 to 138 °C.

For `COC(=O)c1ccc(S(C)(=O)=O)c(C=NO)c1C`, the melting point is 123 to 129 °C.

The compound `CNc1nc(-c2cccc(NC(=O)c3cccc(O)c3)c2)c2cc(OC)c(OC)cc2n1` had a melting point of 265 to 267 °C.

The compound `COc1ccc2c(Nc3ccc4cn[nH]c4c3)c(C#N)cnc2c1` displayed a melting point greater than 250 °C.
